Reference: patent US6426061B1, “Method and composition for preventing sweat-related odor” (priority 2001, dated 2002)

Columns and labels:
androgen receptor = settings: prostate cancer cells; cited from earlier work
[1] = system: underarm odor, axillae skin of a panel of human subjects; assay: Deodorant value test (modified): underarm odor scored 0-5 by three assessors every 24 h; assay type: in vivo; settings: Example 2; single solution on one axilla versus vehicle on the other; compared with 8.2% aluminum chlorohydrate and 0.4% chlorhexidine digluconate
Excerpt: A test for the deodorant effects of monensin or resveratrol alone was first carried out. The positive controls were 8.2% aluminum chlorohydrate, a level that is used in most deodorant or antiperspirant products on the market and 0.4% chlorhexidine digluconate, a level that is usually used for bacterial killing. The negative control was a vehicle consisting of 60% ethanol and 40% water. Three experienced underarm odor assessors who are able to correctly rank the odor intensities based on the deodorant value test system U.S. Pat. No. 4,278,658) performed odor assessments. I)odorant assessment scores were recorded according to the inalodor category scale, when applied directly to the axillae skin of a panel of human subjects.
The test described in deodorant value test system has been modified by measuring odor intensity every 24 hours after treatment until odor intensity is detectable (score 1 or up) on a 0-5 score instead of just 24 hours after treatment.
In this test, twenty subjects selected by experienced odor assessors have an average odor score of 3.5 (range from score 3-5). To prevent any any-over effects from occurring, all of subjects have not used any underarm products before test for at least 10 days. […] At 24 hour intervals, each subject was evaluated for underarm odor by averaging the score of the three assessors until odor in test groups was detectable (score 1 or up). […]

apo D = settings: cited from earlier work

SMILES | effect on expression and function of the androgen receptor (androgen receptor) | effectiveness in preventing underarm odor (deodorant effect, FIG. 1) [1] | effect on secretion of apo D from cells (apo D)
Oc1ccc(C=Cc2cc(O)cc(O)c2)cc1 [Resveratrol, resveratrol] | inhibit the expression and function of the androgen receptor | – | –
CC[C@@]1([C@@H]2O[C@@H]([C@H]3O[C@@](O)(CO)[C@H](C)C[C@@H]3C)C[C@@H]2C)CC[C@H]([C@]2(C)CC[C@]3(C[C@H](O)[C@@H](C)[C@@H]([C@@H](C)[C@@H](OC)[C@H](C)C(=O)O)O3)O2)O1 [monensin] | – | more effective in preventing underarm odor than the positive control products | decreases secretion of apo D from cells
